Source: patent US8404713B2, “Quinolinone derivatives as PARP inhibitors” (Janssen Pharmaceutica NV, priority 2007, dated 2013)
Where a name gives a salt, the structure may show the parent alone.

Assays:
Human PARP-1 enzyme = biological target: T1, Human PARP-1 enzyme (Homo sapiens, UniProt P09874); experiment: In vitro scintillation proximity assay (SPA) for PARP-1 inhibitory activity; assay type: biochemical; conditions: nicked DNA activated PARP-1, [3H]-NAD+, biotinylated histones; tested between 10^-5 M and 3x10^-9 M; read-out: in vitro SPA assay PARP-1 pIC50 (converted)
T1 construct: purchased Trevigen
T1 sequence (P09874 whole entry): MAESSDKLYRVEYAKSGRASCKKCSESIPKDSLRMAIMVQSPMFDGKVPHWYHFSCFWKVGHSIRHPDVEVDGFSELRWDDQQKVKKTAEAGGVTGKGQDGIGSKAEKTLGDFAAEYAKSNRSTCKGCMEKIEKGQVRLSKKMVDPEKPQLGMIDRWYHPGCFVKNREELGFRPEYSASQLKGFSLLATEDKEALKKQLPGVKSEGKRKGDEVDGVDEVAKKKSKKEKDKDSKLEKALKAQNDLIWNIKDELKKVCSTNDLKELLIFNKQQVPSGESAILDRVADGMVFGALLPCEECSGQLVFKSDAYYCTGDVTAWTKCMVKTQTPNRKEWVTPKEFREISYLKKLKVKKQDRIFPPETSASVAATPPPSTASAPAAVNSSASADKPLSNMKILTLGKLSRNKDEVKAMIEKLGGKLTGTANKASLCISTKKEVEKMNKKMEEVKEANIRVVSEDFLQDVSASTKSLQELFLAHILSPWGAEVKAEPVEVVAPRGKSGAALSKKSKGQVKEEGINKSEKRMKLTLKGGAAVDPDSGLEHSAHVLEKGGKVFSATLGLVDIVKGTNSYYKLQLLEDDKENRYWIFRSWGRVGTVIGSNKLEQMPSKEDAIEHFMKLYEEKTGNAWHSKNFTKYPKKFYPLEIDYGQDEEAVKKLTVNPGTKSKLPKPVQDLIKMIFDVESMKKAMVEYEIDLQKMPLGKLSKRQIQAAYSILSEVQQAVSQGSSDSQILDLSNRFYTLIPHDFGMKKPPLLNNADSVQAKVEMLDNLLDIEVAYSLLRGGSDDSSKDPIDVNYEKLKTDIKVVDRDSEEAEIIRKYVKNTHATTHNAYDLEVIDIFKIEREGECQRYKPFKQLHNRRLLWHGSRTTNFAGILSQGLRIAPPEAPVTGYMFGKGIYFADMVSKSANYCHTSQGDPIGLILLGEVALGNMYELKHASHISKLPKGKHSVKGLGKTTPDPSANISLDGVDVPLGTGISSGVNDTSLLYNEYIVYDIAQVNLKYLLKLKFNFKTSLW
Experimental: C.1. In Vitro Scintillation Proximity Assay (SPA) for PARP-1 Inhibitory Activity
Compounds of the present invention were tested in an in vitro assay based on SPA technology (proprietary to GE healthcare).
In principle, the assay relies upon the well established SPA technology for the detection of poly(ADP-ribosyl)ation of biotinylated target proteins, i.e histones. This ribosylation is induced using nicked DNA activated PARP-1 enzyme and [^3H]-nicotinamide adenine dinucleotide ([^3H]-NAD^+) as ADP-ribosyl donor.
Histones (type II-A, supplier: Sigma) were biotinylated using the biotinylation kit of Amersham and stored aliquoted at −20° C. A stock solution of 100 mg/ml SPA poly(vinyl toluene) (PVT) beads (supplier: Amersham) was made in PBS. A stock solution of 61.6 nM [^3H]-NAD^+ was made by adding [^3H]-NAD^+ (0.1 mCi/ml, supplier: Perkin Elmer) to incubation buffer (50 mM Tris/HCl, pH 8; 0.2 mM DTT; 4 mM MgCl2). A solution of 4 mM NAD^+ (supplier: Sigma) was made. Human PARP-1 enzyme was obtained from Trevigen. Biotinylated histones and PVT-SPA beads were mixed and pre-incubated for 30 min. at room temperature. PARP-1 enzyme (concentration was lot dependent) was mixed with the nicked DNA and the mixture was pre-incubated for 30 min. at 4° C. Equal parts of this histones/PVT-SPA beads solution and PARP-1 enzyme/DNA solution were mixed and 75 μl of this mixture together with 1 μl of compound in DMSO and 25 μl of [^3H]-NAD^+ was added per well into a 96-well microtiterplate. The final concentrations in the incubation mixture were 2 μg/ml for the biotinylated histones, 2 mg/ml for the PVT-SPA beads, 0.25 μg/ml for the nicked DNA and between 0.1-0.2 μg/ml for the PARP-1 enzyme. After incubation of the mixture for 20 min. at room temperature, the reaction was terminated by adding 100 μl of 4 mM NAD^+ in water (final concentration 2 mM) and plates were mixed. The beads were sedimented by centrifugation (10 min, 800 rpm). and plates transferred to a TopCountNXT™ (Packard) for scintillation counting, values were expressed as counts per minute (cpm). For each experiment, controls (containing PARP-1 enzyme and DMSO without compound), a blank incubation (containing DMSO but no PARP-1 enzyme, no DNA or compound) and samples (containing PARP-1 enzyme, DNA and compound dissolved in DMSO) were run in parallel. All compounds tested were dissolved and eventually further diluted in DMSO. A dose-response curve was made wherein the compounds were tested at concentrations between 10^−5M and 3×10^−9M. In each test, the blank value was subtracted from both the control and the sample values. The control sample represented maximal PARP-1 enzyme activity. For each sample, the amount of cpm was expressed as a percentage of the mean cpm value of the controls. When appropriate, IC50-values (concentration of the drug, needed to reduce the PARP-1 enzyme activity to 50% of the control) were computed using linear interpolation between the experimental points just above and below the 50% level. Herein the effects of test compounds are expressed as pIC50 (the negative log value of the IC50-value). As a reference compound, 4-amino-1,8-naphthalimide was included to validate the SPA assay.

TANK-2 enzyme = biological target: T2, TANK-2 enzyme (Homo sapiens, UniProt Q9H2K2); experiment: In vitro scintillation proximity assay (SPA) for TANK-2 inhibitory activity; assay type: biochemical; conditions: auto-poly(ADP-ribosyl)ation, Ni flash plates; 96-well results if available, otherwise 384-well; tested between 10^-5 M and 3x10^-8 M; read-out: in vitro SPA assay TANK-2 pIC50 (converted)
T2 construct: made in house
T2 sequence (Q9H2K2 1-1166): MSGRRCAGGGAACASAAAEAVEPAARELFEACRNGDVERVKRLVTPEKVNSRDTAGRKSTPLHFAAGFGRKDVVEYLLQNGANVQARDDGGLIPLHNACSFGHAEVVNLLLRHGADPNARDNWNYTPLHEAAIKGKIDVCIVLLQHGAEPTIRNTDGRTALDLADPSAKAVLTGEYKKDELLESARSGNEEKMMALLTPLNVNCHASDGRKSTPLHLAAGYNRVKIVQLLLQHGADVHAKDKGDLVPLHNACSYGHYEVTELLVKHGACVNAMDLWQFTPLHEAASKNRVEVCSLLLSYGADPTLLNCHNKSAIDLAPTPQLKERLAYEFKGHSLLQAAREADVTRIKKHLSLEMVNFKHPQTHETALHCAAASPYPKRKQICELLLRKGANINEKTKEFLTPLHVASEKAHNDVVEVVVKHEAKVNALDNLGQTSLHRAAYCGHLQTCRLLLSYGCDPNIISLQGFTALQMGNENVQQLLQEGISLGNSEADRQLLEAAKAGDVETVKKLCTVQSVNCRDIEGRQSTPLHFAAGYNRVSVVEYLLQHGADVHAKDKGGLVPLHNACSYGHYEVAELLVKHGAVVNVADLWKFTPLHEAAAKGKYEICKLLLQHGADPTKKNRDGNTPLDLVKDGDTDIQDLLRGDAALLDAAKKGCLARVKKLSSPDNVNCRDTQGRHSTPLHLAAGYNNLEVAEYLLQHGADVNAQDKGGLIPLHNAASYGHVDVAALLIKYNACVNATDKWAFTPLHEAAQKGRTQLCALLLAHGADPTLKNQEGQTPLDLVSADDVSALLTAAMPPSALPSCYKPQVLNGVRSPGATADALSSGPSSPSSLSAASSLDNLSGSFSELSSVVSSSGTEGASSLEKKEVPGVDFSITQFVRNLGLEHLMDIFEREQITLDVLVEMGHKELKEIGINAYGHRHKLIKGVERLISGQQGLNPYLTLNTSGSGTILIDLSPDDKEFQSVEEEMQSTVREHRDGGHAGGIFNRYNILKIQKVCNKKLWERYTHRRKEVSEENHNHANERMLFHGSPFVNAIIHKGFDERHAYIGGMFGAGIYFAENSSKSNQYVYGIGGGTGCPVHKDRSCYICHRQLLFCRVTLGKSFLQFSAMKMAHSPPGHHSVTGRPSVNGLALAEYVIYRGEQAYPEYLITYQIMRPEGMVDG
Experimental: C.2. In Vitro Scintillation Proximity Assay (SPA) for TANK-2 Inhibitory Activity
Compounds of the present invention were tested in an in vitro assay based on SPA technology with Ni Flash plates (96 or 384 well).
In principle, the assay relies upon SPA technology for the detection of auto-poly(ADP-ribosyl)ation of TANK-2 protein using [^3H]-nicotinamide adenine dinucleotide ([^3H]-NAD^+) as ADP-ribosyl donor.
A stock solution of 100 nM [^3H]-NAD^+/NAD (0.1 mCi/ml, supplier: Perkin Elmer) and 0.25 mM NAD (Sigma) was made in assay buffer (60 mM Tris/HCl, pH 7.4; 0.9 mM DTT; 6 mM MgCl2). The TANK-2 enzyme was produced as described in EP1238063. 60 μl of assay buffer, together with 1 μl of compound in DMSO, 20 μl of [^3H]-NAD^+/NAD and 20 μl of TANK-2 enzyme (final concentration 8 μg/ml) was added per well into a 96-well Ni-coated flash plate (Perkin Elmer). After incubation of the mixture for 120 min. at room temperature, the reaction was terminated by adding 60 μl of stopsolution (42.6 mg NAD in 6 ml H2O). The plates were covered with a plate sealer and placed in a TopCountNX™ (Packard) for scintillation counting. Values were expressed as counts per minute (cpm). For each experiment, controls (containing TANK-2 enzyme and DMSO without compound), a blank incubation (containing DMSO but no TANK-2 enzyme or compound) and samples (containing TANK-2 enzyme and compound dissolved in DMSO) were run in parallel. All compounds tested were dissolved and eventually further diluted in DMSO. […] In each test, the blank value was subtracted from both the control and the sample values. The control sample represented maximal TANK-2 enzyme activity. For each sample, the amount of cpm was expressed as a percentage of the mean cpm value of the controls. When appropriate, IC50-values (concentration of the drug, needed to reduce the TANK-2 enzyme activity to 50% of the control) were computed using linear interpolation between the experimental points just above and below the 50% level. Herein the effects of test compounds are expressed as pIC50 (the negative log value of the IC50-value). As reference compounds, 3-aminobenzamide and 4-amino-1,8-naphtalimide were included to validate the SPA assay. Herein the assay was described using 96-well plates. In the assay using 384-well plates the same final concentrations were used and volumes were adapted.

| IC50 (Human PARP-1 enzyme) [nM] | IC50 (TANK-2 enzyme) [nM] | melting point [°C] | Structure (SMILES) |
| --- | --- | --- | --- |
| 0.938 | 1900 | 242 | CCc1cc2ccc(CN3CCN(c4ccccc4)CC3)cc2[nH]c1=O [Compound 6] |
| 309 | > 10000 | – | Cc1cc2ccc(C(C3CCCCC3)N3CCN(c4ccccn4)CC3)cc2[nH]c1=O (stereo not drawn) [Compound 75] |
| 6.46 | 1860 | – | Cc1cc2ccc(C(C)N3CCC(c4ccccc4)CC3)cc2[nH]c1=O (stereo not drawn) [Compound 74] |
| 14.3 | 188 | – | CCc1cc2ccc(CN3CCN(c4ncccn4)CC3)cc2[nH]c1=O [Compound 30] |
| 34.8 | 650 | – | CCc1cc2ccc(CN3C[C@@H]4C[C@H]3CN4c3ccc(Cl)cc3)cc2[nH]c1=O [Compound 28] |
| 275 | 1910 | – | Cc1cc2ccc(C(C3CCCCC3)N3CCN(c4ccc(C#N)cn4)CC3)cc2[nH]c1=O (stereo not drawn) [Compound 70] |
| 65 | 3960 | – | CCc1cc2ccc(CN3CCN(CCOC)CC3)cc2[nH]c1=O [Compound 27] |
| 4070 | > 10000 | – | Cc1cc2ccc(C(C3CCCCC3)N3CCC(c4ccccc4)CC3)cc2[nH]c1=O (stereo not drawn) [Compound 65] |
| 0.566 | 1930 | – | CCc1cc2ccc(CN3CCN(c4ccccc4Cl)CC3)cc2[nH]c1=O [Compound 18] |
| 5.36 | 4220 | – | CCc1cc2ccc(CN3CCCC3)cc2[nH]c1=O [Compound 61] |
| 1.5 | 2800 | – | Cc1cc2ccc(C(C)N3CCC(c4ccc(Cl)cc4)CC3)cc2[nH]c1=O (stereo not drawn) [Compound 50] |
| 94.6 | 391 | – | CCc1cc2ccc(C(O)CN3CCC(Cc4ccccc4)CC3)cc2[nH]c1=O (stereo not drawn) [Compound 34] |
| 77.1 | 65.5 | – | CCc1cc2ccc(CN3CCN(c4ncc(C(=O)O)cn4)CC3)cc2[nH]c1=O [Compound 12] |
| 2.55 | 222 | – | CCc1cc2ccc(CN3CCN(c4cnccn4)CC3)cc2[nH]c1=O [Compound 36] |
| 49.8 | > 10000 | – | Cc1cc2ccc(C(C)N3CCCCC3)cc2[nH]c1=O (stereo not drawn) [Compound 53] |
| 0.646 | 1550 | – | Cc1cc2ccc(C(C)N3CCN(c4ccccc4Cl)CC3)cc2[nH]c1=O (stereo not drawn) [Compound 76] |
| 708 | > 10000 | – | Cc1cc2ccc(C(C3CCCCC3)N3CCN(c4ccccc4C#N)CC3)cc2[nH]c1=O (stereo not drawn) [Compound 67] |
| 95.9 | 2320 | – | Cc1cc2ccc(C(C)N3CCN(c4cccc(Cl)c4)CC3)cc2[nH]c1=O (stereo not drawn) [Compound 58] |
| 24.4 | 254 | – | CCc1cc2ccc(CNCc3ccc(F)cc3)cc2[nH]c1=O [Compound 48] |
| 0.865 | 76.6 | – | CCc1cc2ccc(CN3CCN(c4ccc(C#N)cn4)CC3)cc2[nH]c1=O [Compound 17] |
| 80.4 | 1000 | – | CCc1cc2ccc(CNCCN3CCN(c4ncccn4)CC3)cc2[nH]c1=O [Compound 24] |
| 6.9 | 2190 | – | CCc1cc2ccc(CN3CCN(CCc4ccccc4)CC3)cc2[nH]c1=O [Compound 44] |
| 89.5 | 92.3 | – | CCc1cc2ccc(C(O)CN3CCN(c4ncccn4)CC3)cc2[nH]c1=O (stereo not drawn) [Compound 32] |
| 1.21 | 368 | – | CCc1cc2ccc(CN3CCN(c4ccc(C(F)(F)F)cn4)CC3)cc2[nH]c1=O [Compound 22] |
| 84.7 | 780 | – | CCc1cc2ccc(C(CO)N3CCN(c4ncccn4)CC3)cc2[nH]c1=O (stereo not drawn) [Compound 33] |
| 8.95 | 33 | – | CCc1cc2ccc(CN3CCN(c4ncc(C(=O)NCCO)cn4)CC3)cc2[nH]c1=O [Compound 62] |
| – | – | 174 | CCc1cc2ccc(CCCN3CCN(c4ccc(C#N)cn4)CC3)cc2[nH]c1=O (as salt: HCl) [Compound 8] |
| ≥ 10000 | 933 | – | COc1ccccc1N1CCN(C(c2ccc3cc(C)c(=O)[nH]c3c2)C2CCCCC2)CC1 (stereo not drawn) [Compound 72] |
| 170 | 63.2 | – | CCc1cc2ccc(CCCN3CCN(c4ccc(C#N)cn4)CC3)cc2[nH]c1=O [Compound 8] |
| 5.68 | 232 | – | CCc1cc2ccc(CN3CCN(c4n[nH]c5ccccc45)CC3)cc2[nH]c1=O [Compound 37] |
